Measurements as given in ChEMBL document CHEMBL1201862, “PubChem BioAssay data set” (2004).
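All cell lines were grown in 96-well plates and treated with compound for 48 hours. At the GI50, growth is halved.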 Activity calls are given as the source filed them. Cut-off read from the data, not from the text of the source: active = GI50 up to about 1.1 µM and inactive = higher.

What was measured:
Assay in all cases: growth of human tumour cells (NCI), 48 h
M14 = tested on: M14
UACC-257 = tested on: UACC-257
Hs-578T = tested on: Hs-578T
SR = tested on: SR
LOX IMVI = tested on: LOX IMVI
A498 = tested on: A498
NCI/ADR-RES = tested on: NCI/ADR-RES
KM12 = tested on: KM12
MDA-N = tested on: MDA-N
RPMI-8226 = tested on: RPMI-8226
SK-MEL-2 = tested on: SK-MEL-2
IGROV-1 = tested on: IGROV-1
PC-3 = tested on: PC-3
SNB-75 = tested on: SNB-75
A549 = tested on: A549
CAKI-1 = tested on: CAKI-1
OVCAR-8 = tested on: OVCAR-8
MOLT-4 = tested on: MOLT-4
SF-268 = tested on: SF-268
OVCAR-5 = tested on: OVCAR-5

Row | Structure (SMILES) | GI50 (M14) | GI50 (UACC-257) | GI50 (Hs-578T) | GI50 (SR) | GI50 (LOX IMVI) | GI50 (A498) | GI50 (NCI/ADR-RES) | GI50 (KM12) | GI50 (MDA-N) | GI50 (RPMI-8226) | GI50 (SK-MEL-2) | GI50 (IGROV-1) | GI50 (PC-3) | GI50 (SNB-75) | GI50 (A549) | GI50 (CAKI-1) | GI50 (OVCAR-8) | GI50 (MOLT-4) | GI50 (SF-268) | GI50 (OVCAR-5)
1 | CC(C)(C)c1cc(Br)c(O)c(CN(Cc2cc(C(C)(C)C)cc(Br)c2O)C2CCCCC2)c1 | 12.9 µM (inactive) | 4.14 µM (inactive) | 13.1 µM (inactive) | 10.1 µM (inactive) | 16.3 µM (inactive) | 13.5 µM (inactive) | 12 µM (inactive) | 14.7 µM (inactive) | 14.5 µM (inactive) | 11.8 µM (inactive) | 13.1 µM (inactive) | 15.3 µM (inactive) | 14.9 µM (inactive) | 8.55 µM (inactive) | 14.1 µM (inactive) | 12.3 µM (inactive) | 15.1 µM (inactive) | 10.4 µM (inactive) | 13.5 µM (inactive) | 15.7 µM (inactive)
2 | Cn1c2ccccc2c(=O)c2c(O)cc3c(c21)CC(C1(C)CO1)O3 (stereo not given) | 1.51 µM (inactive) | 3.93 µM (inactive) | 2 µM (inactive) | 0.111 µM (active) | < 0.0111 µM (active) | 11.2 µM (inactive) | 1.32 µM (inactive) | 2.41 µM (inactive) | 1.38 µM (inactive) | 2.82 µM (inactive) | 0.887 µM (active) | 5.87 µM (inactive) | 3.37 µM (inactive) | 7.28 µM (inactive) | 5.16 µM (inactive) | 2.99 µM (inactive) | 0.966 µM (active) | 0.0665 µM (active) | 0.942 µM (active) | 6.53 µM (inactive)
3 | CC(C)/C(Cl)=N/OC(=O)Nc1cccc(C(F)(F)F)c1 | 3.52 µM (inactive) | 15.4 µM (inactive) | 9.55 µM (inactive) | 1.06 µM (active) | 2.51 µM (inactive) | 18.7 µM (inactive) | 5.5 µM (inactive) | 15.3 µM (inactive) | 10.6 µM (inactive) | 1.56 µM (inactive) | 17.8 µM (inactive) | 13.4 µM (inactive) | 16.2 µM (inactive) | 5.04 µM (inactive) | 19.3 µM (inactive) | 1.75 µM (inactive) | 14.5 µM (inactive) | 1.67 µM (inactive) | 23.1 µM (inactive) | 18.9 µM (inactive)
4 | O=[N+]([O-])c1nccn1CCCNCCCn1ccnc1[N+](=O)[O-] | > 100 µM (inactive) | > 100 µM (inactive) | > 100 µM (inactive) | > 100 µM (inactive) | 74.6 µM (inactive) | > 100 µM (inactive) | > 100 µM (inactive) | > 100 µM (inactive) | > 100 µM (inactive) | > 100 µM (inactive) | > 100 µM (inactive) | > 100 µM (inactive) | > 100 µM (inactive) | > 100 µM (inactive) | > 100 µM (inactive) | > 100 µM (inactive) | > 100 µM (inactive) | > 100 µM (inactive) | > 100 µM (inactive) | > 100 µM (inactive)
5 | Cc1c(C)c(S(=O)(=O)N(CCCN)OCCCN)c(C)c2c1OC(C)(C)C2 | 18.1 µM (inactive) | 34.3 µM (inactive) | 18.8 µM (inactive) | 34.8 µM (inactive) | 19.6 µM (inactive) | 18.8 µM (inactive) | > 100 µM (inactive) | 17.6 µM (inactive) | 19 µM (inactive) | 42.3 µM (inactive) | 9.64 µM (inactive) | 22.9 µM (inactive) | 17.7 µM (inactive) | 17.3 µM (inactive) | 44.1 µM (inactive) | 34.4 µM (inactive) | 80.5 µM (inactive) | 20.4 µM (inactive) | 27.6 µM (inactive) | 23.5 µM (inactive)
6 | CC(=O)C(C(=O)c1ccc(C)cc1)[C@H]1OC(C)(C)O[C@H]1[C@H]1COC(C)(C)O1 (stereo not given in full) | 6.9 µM (inactive) | 5.31 µM (inactive) | 3.08 µM (inactive) | 1.42 µM (inactive) | 2.06 µM (inactive) | 7.55 µM (inactive) | 4.54 µM (inactive) | 8.75 µM (inactive) | 1.85 µM (inactive) | 1.6 µM (inactive) | 2.92 µM (inactive) | 3.17 µM (inactive) | 2.55 µM (inactive) | 3.78 µM (inactive) | 11.2 µM (inactive) | 5.38 µM (inactive) | 1.9 µM (inactive) | 1.66 µM (inactive) | 2.81 µM (inactive) | 8.39 µM (inactive)
7 | Cc1c(-c2ccccc2)nn2cc(-c3ccccc3)nnc12 | 22.6 µM (inactive) | 23.4 µM (inactive) | 25.2 µM (inactive) | 33.5 µM (inactive) | 19 µM (inactive) | 56.6 µM (inactive) | 39.1 µM (inactive) | 29 µM (inactive) | 19.7 µM (inactive) | 35.5 µM (inactive) | 15.1 µM (inactive) | 21.7 µM (inactive) | 19.6 µM (inactive) | 20.7 µM (inactive) | 17.5 µM (inactive) | 45.7 µM (inactive) | 67.3 µM (inactive) | 35.5 µM (inactive) | 28.6 µM (inactive) | 30.7 µM (inactive)
8 | COc1ccc2c(c1)c1c3c(ccc4ncn2c43)N(CCO)CCN=1 | 0.271 µM (active) | 0.391 µM (active) | 0.274 µM (active) | 0.0198 µM (active) | 0.151 µM (active) | 0.215 µM (active) | 0.334 µM (active) | 0.26 µM (active) | 0.214 µM (active) | 0.281 µM (active) | 0.175 µM (active) | 2.02 µM (inactive) | 0.148 µM (active) | 0.306 µM (active) | 0.218 µM (active) | 0.247 µM (active) | 0.0927 µM (active) | 0.026 µM (active) | 0.221 µM (active) | 0.245 µM (active)
9 | CN(C)c1ncc(-c2c[nH]c3ccccc23)nc1-c1c[nH]c2ccccc12 | 1.89 µM (inactive) | 1.9 µM (inactive) | 2.78 µM (inactive) | 3.24 µM (inactive) | 2.51 µM (inactive) | 2.14 µM (inactive) | 9.95 µM (inactive) | 2.19 µM (inactive) | 2.08 µM (inactive) | 2.74 µM (inactive) | 3.83 µM (inactive) | 3.24 µM (inactive) | 3.69 µM (inactive) | 1.15 µM (inactive) | 3.33 µM (inactive) | 3.47 µM (inactive) | 6.93 µM (inactive) | 3.47 µM (inactive) | 10.6 µM (inactive) | 4.68 µM (inactive)
